Measured values published in ChEMBL document CHEMBL1201862, “PubChem BioAssay data set” (2004).
The source made the active and inactive calls.

Assays:
[1] = target: T1, Hepatocyte nuclear factor 4-alpha (Homo sapiens, UniProt P41235); assay type: functional, cell-based;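 note: biochemical luminescence-based dose-response counterscreen measuring inhibition of HNF4 dimerization, run alongside a screen for blockers of ABHD5–perilipin-5 interaction; split luciferase complementation of HNF4 fusion proteins in cell lysate measuring dimerization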
T1 sequence (P41235 whole entry): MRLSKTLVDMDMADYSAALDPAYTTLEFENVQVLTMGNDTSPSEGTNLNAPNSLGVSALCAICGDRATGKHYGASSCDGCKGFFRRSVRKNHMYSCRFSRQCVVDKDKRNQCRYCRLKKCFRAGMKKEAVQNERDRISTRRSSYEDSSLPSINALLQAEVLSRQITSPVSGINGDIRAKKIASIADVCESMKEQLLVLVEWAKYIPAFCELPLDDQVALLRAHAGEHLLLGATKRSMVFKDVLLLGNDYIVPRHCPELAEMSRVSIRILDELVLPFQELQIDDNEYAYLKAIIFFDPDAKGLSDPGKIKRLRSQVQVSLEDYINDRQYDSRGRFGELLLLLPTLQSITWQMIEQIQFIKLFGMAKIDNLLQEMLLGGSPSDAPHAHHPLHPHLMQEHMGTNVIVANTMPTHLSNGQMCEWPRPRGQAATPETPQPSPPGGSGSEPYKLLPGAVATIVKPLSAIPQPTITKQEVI

[2] = target: T2, Carboxy-terminal domain RNA polymerase II polypeptide A small phosphatase 1 (Homo sapiens, UniProt Q9GZU7); experiment: CTDSP1 inhibitors, concentration-response, biochemical, absorbance readout, ultra-high-throughput screen actives (AID 540297); assay type: functional
T2 sequence (Q9GZU7 whole entry): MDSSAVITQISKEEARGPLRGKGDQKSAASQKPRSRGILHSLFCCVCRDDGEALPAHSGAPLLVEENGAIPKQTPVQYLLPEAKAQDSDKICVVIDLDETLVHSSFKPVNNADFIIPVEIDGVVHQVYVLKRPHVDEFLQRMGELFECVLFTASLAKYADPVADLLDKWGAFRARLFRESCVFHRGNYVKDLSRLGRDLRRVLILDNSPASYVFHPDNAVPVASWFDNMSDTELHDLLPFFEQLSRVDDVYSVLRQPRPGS

[3] = viability of HCT116 lacking mutant beta-catenin – cell-based, human colon tumor, dose response (AID 1045); assay type: functional;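 note: HCT116 colon tumor cells with beta catenin knocked out; cells exposed to compound for 60 hours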
[4] = viability of PTEN-deleted HCT116 cells – cell-based, HCT116 PTEN knockout, dose response (AID 1047); assay type: functional;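 note: HCT116 colon tumor cells with PTEN knocked out; cells exposed to compound for 60 hours before readout; potency for loss of cell viability measured by luminescence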
[5] = target: T3, Low molecular weight phosphotyrosine protein phosphatase (Homo sapiens, UniProt P24666); assay type: functional; conditions: read-out: IC50_Mean;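 note: Dose-response confirmation assay measuring inhibition of LMPTP enzyme activity by fluorescence intensity read-out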
T3 sequence (P24666 whole entry): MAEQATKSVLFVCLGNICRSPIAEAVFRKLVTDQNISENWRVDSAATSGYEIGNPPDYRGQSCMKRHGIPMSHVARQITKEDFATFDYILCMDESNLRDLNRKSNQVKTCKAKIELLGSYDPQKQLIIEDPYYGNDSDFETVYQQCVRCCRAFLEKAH

[6] = growth inhibition of PfATP4-mutant resistant parasites – NITD609-resistant line, SYBR Green, dry powder, dose response (AID 1159571); assay type: functional, cell-based;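 note: parasites synchronized at ring stage by sorbitol before testing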
[7] = growth inhibition of yeast DHODH-expressing 3D7 parasites – SYBR Green, dry powder samples, dose response (AID 1159570); assay type: functional, cell-based;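 note: parasite growth measured after 72 hours of compound exposure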
[8] = toxicity to human hepatoma HepG2 cells – cell-based, cherry-picked samples, cytotoxicity control, dose response (AID 1159577); assay type: functional
[9] = Dd2 malaria parasite growth inhibition potency – SYBR Green, dry powder samples, dose response (AID 1159566); assay type: functional, cell-based;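 note: potency for growth inhibition with lower SYBR green DNA signal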
[10] = P. falciparum Dd2 growth inhibitors, dose response, SYBR Green, cherry-picked samples (AID 1159567); assay type: functional, cell-based
[11] = toxicity to human HepG2 hepatoma cells – cell-based, plate reader, dry powder samples, cytotoxicity control, dose response (AID 1159569); assay type: functional;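 note: inhibitor potency with signal falling toward the positive control level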

For `Cc1cccc(C)c1NC(=O)C(c1ccccc1F)n1c(=O)c(-c2ccco2)nc2ccccc21` (stereo not given), the IC50 [1] was 2480 nM (active).

For `O=C(N/N=C/c1cccc([N+](=O)[O-])c1)c1cc2c(ccc3ccccc32)o1`, the IC50 [2] was 3910 nM (active), the EC50 [3] was 148000 nM (active) and the EC50 [4] was 52600 nM (active). For the same molecule, the IC50 [5] was 4060 nM (active).

In the case of `COc1cccc(C#Cc2ccc([C@@H]3[C@@H](CO)N4C(=O)CN(C(=O)c5ccccc5)C[C@@H]34)cc2)c1`, the AC50 [6] is reported as 1530 nM (active), the AC50 [7] is reported as 2230 nM (active) and the AC50 [8] is reported as > 39000 nM (inactive). For the same molecule, the AC50 [9] was 1190 nM (active) and the AC50 [10] was 2300 nM (active).

For `CCCN1CCC2(CC1)CN(Cc1ccccc1OC)[C@H](CO)c1c2c2ccc(OC)cc2n1C`, the AC50 [11] was 25700 nM (active), the AC50 [6] was 888 nM (active) and the AC50 [7] was 1490 nM (active). For the same molecule, the AC50 [8] was > 39000 nM (inactive), the AC50 [9] was 681 nM (active) and the AC50 [10] was 2220 nM (active).

With `Cc1cccc(-c2ccc([C@@H]3[C@H](CO)N4CCCCN(S(=O)(=O)c5ccccc5C)C[C@@H]34)cc2)c1` the AC50 [8] was 9300 nM (active) and the AC50 [10] was 845 nM (active).

With `CO[C@@H]1CN(C)C(=O)c2cc(NC(=O)c3nc4ccccc4s3)ccc2OC[C@@H](C)N(Cc2ccncc2)C[C@H]1C` the AC50 [8] was 24500 nM (active) and the AC50 [10] was 5880 nM (active).

With `O=C(Nc1ccccc1)N1CCCCN2[C@H](CO)[C@H](c3ccc(C#Cc4ccccc4)cc3)[C@@H]2C1` the AC50 [11] was > 100000 nM (inactive), the AC50 [6] was 38.6 nM (active) and the AC50 [7] was 37.8 nM (active). For the same molecule, the AC50 [9] was 42.5 nM (active) and the AC50 [10] was < 300 nM (active).
